Laboratory results as given in patent publication EP4578856A1, “HETEROCYCLIC COMPOUND” (Ubience Inc., priority 2022, dated 2024).

Target: ROCK2 protein (Homo sapiens, UniProt O75116)
Experiment: Degradation inducing activity of ROCK2 protein in HUVEC cells, Western blotting (Simple Western JESS)
Assay type: cell-based
Design: endogenous in cells; host or cells: HUVEC (ATCC CRL-1730)
Details: for inhibition at 1 µM / inhibition at 10 µM: HUVEC, 24 h; for ROCK2 protein degradation rate: 24 hours
Method in brief: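 HUVEC cells treated 24 h with compound at 10 µM or 1 µM, then lysed; ROCK2 quantified by capillary Western (Simple Western JESS) using rabbit mAb D1B1, normalized to total loaded protein. Degradation rate (%) calculated relative to DMSO control set at 100%, binned A ≥75%, B 50–75%, C 25–50%, D <25%.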

ROCK2 protein, sequence (O75116 whole entry): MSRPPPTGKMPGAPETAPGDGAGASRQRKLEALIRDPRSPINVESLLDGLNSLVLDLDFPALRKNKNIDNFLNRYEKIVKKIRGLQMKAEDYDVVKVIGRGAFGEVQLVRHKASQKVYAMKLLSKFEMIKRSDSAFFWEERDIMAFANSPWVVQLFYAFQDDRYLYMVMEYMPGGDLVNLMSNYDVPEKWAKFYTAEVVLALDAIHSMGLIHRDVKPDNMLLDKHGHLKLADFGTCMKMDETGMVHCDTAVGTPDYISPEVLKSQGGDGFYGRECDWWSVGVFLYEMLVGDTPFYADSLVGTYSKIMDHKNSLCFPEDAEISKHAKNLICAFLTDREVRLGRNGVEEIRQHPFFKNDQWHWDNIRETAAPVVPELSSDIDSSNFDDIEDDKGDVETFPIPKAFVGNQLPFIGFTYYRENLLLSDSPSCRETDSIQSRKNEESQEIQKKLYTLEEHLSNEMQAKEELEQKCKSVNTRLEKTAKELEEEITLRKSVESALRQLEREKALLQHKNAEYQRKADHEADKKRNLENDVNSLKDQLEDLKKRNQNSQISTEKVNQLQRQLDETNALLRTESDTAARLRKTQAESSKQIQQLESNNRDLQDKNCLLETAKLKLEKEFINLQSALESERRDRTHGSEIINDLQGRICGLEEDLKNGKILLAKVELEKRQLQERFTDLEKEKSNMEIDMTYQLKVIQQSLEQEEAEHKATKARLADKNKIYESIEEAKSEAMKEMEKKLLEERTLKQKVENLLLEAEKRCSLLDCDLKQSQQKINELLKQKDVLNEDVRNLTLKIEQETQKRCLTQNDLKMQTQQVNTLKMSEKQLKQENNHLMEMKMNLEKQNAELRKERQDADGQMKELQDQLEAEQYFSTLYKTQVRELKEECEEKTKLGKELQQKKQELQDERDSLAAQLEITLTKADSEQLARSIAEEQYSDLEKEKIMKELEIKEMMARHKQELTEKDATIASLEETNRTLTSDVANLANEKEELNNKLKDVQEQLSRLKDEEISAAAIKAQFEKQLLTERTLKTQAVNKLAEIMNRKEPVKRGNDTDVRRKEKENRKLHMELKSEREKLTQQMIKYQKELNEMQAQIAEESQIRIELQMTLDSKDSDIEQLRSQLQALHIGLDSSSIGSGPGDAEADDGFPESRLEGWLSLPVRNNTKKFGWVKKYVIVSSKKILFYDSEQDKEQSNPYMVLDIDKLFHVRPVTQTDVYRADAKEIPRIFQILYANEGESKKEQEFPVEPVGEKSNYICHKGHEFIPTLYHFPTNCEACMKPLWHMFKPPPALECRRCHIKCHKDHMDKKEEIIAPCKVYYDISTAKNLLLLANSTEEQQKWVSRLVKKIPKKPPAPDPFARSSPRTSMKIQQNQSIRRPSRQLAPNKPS

Row | SMILES | inhibition at 1 µM (degradation rate at 1 µM) [%] | inhibition at 10 µM (degradation rate at 10 µM) [%] | ROCK2 protein degradation rate (degradation rate at 1 µM) | ROCK2 protein degradation rate (degradation rate at 10 µM)
1 | COC[C@H]1CN[C@H](C)CN1CC(=O)N1CC(C)(C)c2ncc(Cc3cccc(OCCOCCOCCOCCOCCOCCOCCN[C@H](Cc4cccc(F)c4)C(=O)Nc4ccc(-c5ccncc5)cc4)c3)cc21 [Example 55, (R)-2-(3-Fluorobenzyl)-23-(3-((1-(2-((2R,5R)-2-(methoxymethyl)-5-methylpiperazin-1-yl)acetyl)-3,3-dimethyl-2,3-dihydro-1H-pyrrolo[3,2-b]pyridin-6-yl)methyl)phenoxy)-N-(4-(pyridin-4-yl)phenyl)-6,9,12,15,18,21-hexaoxa-3-azatricosanamide] | < 25 | 50 to 75 |  | 
2 | COC[C@H]1CN[C@H](C)CN1CC(=O)N1CC(C)(C)c2ncc(Cc3cccc(OCCOCCNC[C@@H](C(=O)Nc4ccc5cnccc5c4)c4ccccc4)c3)cc21 [Example 57, (S)-N-(Isoquinolin-6-yl)-3-((2-(2-(3-((1-(2-((2R,5R)-2-(methoxymethyl)-5-methylpiperazin-1-yl)acetyl)-3,3-dimethyl-2,3-dihydro-1H-pyrrolo[3,2-b]pyridin-6-yl)methyl)phenoxy)ethoxy)ethyl)amino)-2-phenylpropanamide] | 25 to 50 | ≥ 75 |  | 
3 | COC[C@H]1CN[C@H](C)CN1CC(=O)N1CC(C)(C)c2ncc(Cc3cccc(OCCOCCOCCNC[C@@H](C(=O)Nc4ccc5cnccc5c4)c4ccccc4)c3)cc21 [Example 58, (S)-N-(Isoquinolin-6-yl)-3-((2-(2-(2-(3-((1-(2-((2R,5R)-2-(methoxymethyl)-5-methylpiperazin-1-yl)acetyl)-3,3-dimethyl-2,3-dihydro-1H-pyrrolo[3,2-b]pyridin-6-yl)methyl)phenoxy)ethoxy)ethoxy)ethyl)amino)-2-phenylpropanamide] | 50 to 75 | ≥ 75 |  | 
4 | COC[C@H]1CN[C@H](C)CN1CC(=O)N1CC(C)(C)c2ncc(Cc3cccc(OCCOCCOCCOCCNC[C@@H](C(=O)Nc4ccc5cnccc5c4)c4ccccc4)c3)cc21 [Example 59, (S)-N-(Isoquinolin-6-yl)-1-(3-((1-(2-((2R,5R)-2-(methoxymethyl)-5-methylpiperazin-1-yl)acetyl)-3,3-dimethyl-2,3-dihydro-1H-pyrrolo[3,2-b]pyridin-6-yl)methyl)phenoxy)-14-phenyl-3,6,9-trioxa-12-azapentadecan-15-amide] | ≥ 75 | ≥ 75 |  | 
5 | COC[C@H]1CN[C@H](C)CN1CC(=O)N1CC(C)(C)c2ncc(Cc3cccc(OCCOCCOCCOCCOCCNC[C@@H](C(=O)Nc4ccc5cnccc5c4)c4ccccc4)c3)cc21 [Example 60, (S)-N-(Isoquinolin-6-yl)-1-(3-((1-(2-((2R,5R)-2-(methoxymethyl)-5-methylpiperazin-1-yl)acetyl)-3,3-dimethyl-2,3-dihydro-1H-pyrrolo[3,2-b]pyridin-6-yl)methyl)phenoxy)-17-phenyl-3,6,9,12-tetraoxa-15-azaoctadecan-18-amide] | 25 to 50 | ≥ 75 |  | 
6 | COC[C@H]1CN[C@H](C)CN1CC(=O)N1CC(C)(C)c2ncc(Cc3cccc(OCCOCCOCCOCCOCCOCCNC[C@@H](C(=O)Nc4ccc5cnccc5c4)c4ccccc4)c3)cc21 [Example 61, (S)-N-(Isoquinolin-6-yl)-1-(3-((1-(2-((2R,5R)-2-(methoxymethyl)-5-methylpiperazin-1-yl)acetyl)-3,3-dimethyl-2,3-dihydro-1H-pyrrolo[3,2-b]pyridin-6-yl)methyl)phenoxy)-20-phenyl-3,6,9,12,15-pentaoxa-18-azahenicosan-21-amide] | 50 to 75 | ≥ 75 |  | 
7 | COC[C@H]1CN[C@H](C)CN1CC(=O)N1CC(C)(C)c2ncc(Cc3cccc(OCCOCCOCCOCCOCCOCCOCCNC[C@@H](C(=O)Nc4ccc5cnccc5c4)c4ccccc4)c3)cc21 [Example 62, (S)-N-(Isoquinolin-6-yl)-1-(3-((1-(2-((2R,5R)-2-(methoxymethyl)-5-methylpiperazin-1-yl)acetyl)-3,3-dimethyl-2,3-dihydro-1H-pyrrolo[3,2-b]pyridin-6-yl)methyl)phenoxy)-23-phenyl-3,6,9,12,15,18-hexaoxa-21-azatetracosan-24-amide] | 25 to 50 | ≥ 75 |  | 
8 | COC[C@H]1CN[C@H](C)CN1CC(=O)N1CC(C)(C)c2ncc(Cc3cccc(OCCOCCOCCOCCOCCOCCOCCOCCNC[C@@H](C(=O)Nc4ccc5cnccc5c4)c4ccccc4)c3)cc21 [Example 63, (S)-N-(Isoquinolin-6-yl)-1-(3-((1-(2-((2R,5R)-2-(methoxymethyl)-5-methylpiperazin-1-yl)acetyl)-3,3-dimethyl-2,3-dihydro-1H-pyrrolo[3,2-b]pyridin-6-yl)methyl)phenoxy)-26-phenyl-3,6,9,12,15,18,21-heptaoxa-24-azaheptacosan-27-amide] | < 25 | 50 to 75 |  | 

Other lines, results leading:

Row | inhibition at 1 µM (degradation rate at 1 µM) [%] | inhibition at 10 µM (degradation rate at 10 µM) [%] | ROCK2 protein degradation rate (degradation rate at 1 µM) | ROCK2 protein degradation rate (degradation rate at 10 µM) | SMILES
9 | < 25 | 50 to 75 |  |  | COC[C@H]1CN[C@H](C)CN1CC(=O)N1CC(C)(C)c2ncc(Cc3ccccc3OCCOCCN[C@H](C)c3ccc(C(=O)Nc4ccncc4)cc3)cc21 [Example 64, 4-((R)-1-((2-(2-(2-((1-(2-((2R,5R)-2-(Methoxymethyl)-5-methylpiperazin-1-yl)acetyl)-3,3-dimethyl-2,3-dihydro-1H-pyrrolo[3,2-b]pyridin-6-yl)methyl)phenoxy)ethoxy)ethyl)amino)ethyl)-N-(pyridin-4-yl)benzamide]
10 |  |  | D (D < 25%) | B (75% > B ≥ 50%) | COC[C@H]1CN[C@H](C)CN1CC(=O)N1CC(C)(C)c2ncc(Cc3ccccc3OCCOCCOCCN[C@H](C)c3ccc(C(=O)Nc4ccncc4)cc3)cc21 [Example 65, 4-((R)-1-((2-(2-(2-(2-((1-(2-((2R,5R)-2-(Methoxymethyl)-5-methylpiperazin-1-yl)acetyl)-3,3-dimethyl-2,3-dihydro-1H-pyrrolo[3,2-b]pyridin-6-yl)methyl)phenoxy)ethoxy)ethoxy)ethyl)amino)ethyl)-N-(pyridin-4-yl)benzamide]
11 | < 25 | 50 to 75 |  |  | COC[C@H]1CN[C@H](C)CN1CC(=O)N1CC(C)(C)c2ncc(Cc3ccccc3OCCOCCOCCOCCOCCN[C@H](C)c3ccc(C(=O)Nc4ccncc4)cc3)cc21 [Example 67, 4-((R)-17-(2-((1-(2-((2R,5R)-2-(Methoxymethyl)-5-methylpiperazin-1-yl)acetyl)-3,3-dimethyl-2,3-dihydro-1H-pyrrolo[3,2-b]pyridin-6-yl)methyl)phenoxy)-6,9,12,15-tetraoxa-3-azaheptadecan-2-yl)-N-(pyridin-4-yl)benzamide]
12 | ≥ 75 |  |  |  | COC[C@H]1CN[C@H](C)CN1CC(=O)N1CC(C)(C)c2ncc(Cc3ccccc3OCCOCCOCCOCCOCCOCCN[C@H](C)c3ccc(C(=O)Nc4ccncc4)cc3)cc21 [Example 68, 4-((R)-20-(2-((1-(2-((2R,5R)-2-(Methoxymethyl)-5-methylpiperazin-1-yl)acetyl)-3,3-dimethyl-2,3-dihydro-1H-pyrrolo[3,2-b]pyridin-6-yl)methyl)phenoxy)-6,9,12,15,18-pentaoxa-3-azaicosan-2-yl)-N-(pyridin-4-yl)benzamide]
13 | ≥ 75 | ≥ 75 |  |  | COC[C@H]1CN[C@H](C)CN1CC(=O)N1CC(C)(C)c2ncc(Cc3ccccc3OCCOCCOCCOCCOCCOCCOCCN[C@H](C)c3ccc(C(=O)Nc4ccncc4)cc3)cc21 [Example 69, 4-((R)-23-(2-((1-(2-((2R,5R)-2-(Methoxymethyl)-5-methylpiperazin-1-yl)acetyl)-3,3-dimethyl-2,3-dihydro-1H-pyrrolo[3,2-b]pyridin-6-yl)methyl)phenoxy)-6,9,12,15,18,21-hexaoxa-3-azatricosan-2-yl)-N-(pyridin-4-yl)benzamide]
14 | ≥ 75 | ≥ 75 |  |  | COC[C@H]1CN[C@H](C)CN1CC(=O)N1CC(C)(C)c2ncc(Cc3ccccc3OCCOCCOCCOCCOCCOCCOCCOCCN[C@H](C)c3ccc(C(=O)Nc4ccncc4)cc3)cc21 [Example 70, 4-((R)-26-(2-((1-(2-((2R,5R)-2-(Methoxymethyl)-5-methylpiperazin-1-yl)acetyl)-3,3-dimethyl-2,3-dihydro-1H-pyrrolo[3,2-b]pyridin-6-yl)methyl)phenoxy)-6,9,12,15,18,21,24-heptaoxa-3-azahexacosan-2-yl)-N-(pyridin-4-yl)benzamide]
15 | 25 to 50 | < 25 |  |  | COC[C@H]1CN[C@H](C)CN1CC(=O)N1CC(C)(C)c2ncc(Cc3ccccc3OCCOCCN[C@H](Cc3cccc(F)c3)C(=O)Nc3ccc(-c4ccncc4)cc3)cc21 [Example 71, (R)-3-(3-Fluorophenyl)-2-((2-(2-(2-((1-(2-((2R,5R)-2-(methoxymethyl)-5-methylpiperazin-1-yl)acetyl)-3,3-dimethyl-2,3-dihydro-1H-pyrrolo[3,2-b]pyridin-6-yl)methyl)phenoxy)ethoxy)ethyl)amino)-N-(4-(pyridin-4-yl)phenyl)propanamide]
16 | < 25 | ≥ 75 |  |  | COC[C@H]1CN[C@H](C)CN1CC(=O)N1CC(C)(C)c2ncc(Cc3ccccc3OCCOCCOCCN[C@H](Cc3cccc(F)c3)C(=O)Nc3ccc(-c4ccncc4)cc3)cc21 [Example 72, (R)-3-(3-Fluorophenyl)-2-((2-(2-(2-(2-((1-(2-((2R,5R)-2-(methoxymethyl)-5-methylpiperazin-1-yl)acetyl)-3,3-dimethyl-2,3-dihydro-1H-pyrrolo[3,2-b]pyridin-6-yl)methyl)phenoxy)ethoxy)ethoxy)ethyl)amino)-N-(4-(pyridin-4-yl)phenyl)propanamide]
